Source: the NIST ThermoML archive (doi:10.1016/j.fluid.2012.08.002)

Test: xn = mol fraction of the nth substance listed
Settings: 101 kPa, Liquid; for speed of sound: Sing-around technique in a fixed-path interferometer; for mass density: Vibrating tube method

CCCCCCn1cc[n+](C)c1.F[P-](F)(F)(F)(F)F [1-hexyl-3-methylimidazolium hexafluorophosphate] + COCCO
Settings	mass density [kg/m3]	speed of sound [m/s]
288.15 K, x1 = 0.0503	1020.76	1399.2
288.15 K, x1 = 0.1092	1067.45	1411
288.15 K, x1 = 0.2006	1121.27	1419.8
288.15 K, x1 = 0.3032	1165.23	1422.9
288.15 K, x1 = 0.4013	1197.38	1424.7
288.15 K, x1 = 0.5017	1223.62	1427.5
288.15 K, x1 = 0.6054	1245.52	1433.9
288.15 K, x1 = 0.7024	1262.69	1434.3
288.15 K, x1 = 0.8019	1277.93	1436.7
288.15 K, x1 = 0.9094	1292.27	1442.3
293.15 K, x1 = 0.0503	1016.22	1382.5
293.15 K, x1 = 0.1092	1062.97	1394.8
293.15 K, x1 = 0.2006	1116.89	1404.6
293.15 K, x1 = 0.3032	1160.9	1408.6
293.15 K, x1 = 0.4013	1193.08	1411.3
293.15 K, x1 = 0.5017	1219.44	1414.5
293.15 K, x1 = 0.6054	1241.45	1421.2
293.15 K, x1 = 0.7024	1258.71	1421.4
293.15 K, x1 = 0.8019	1273.92	1424
293.15 K, x1 = 0.9094	1288.2	1428.6
298.15 K, x1 = 0.0503	1011.72	1365.8
298.15 K, x1 = 0.1092	1058.47	1378.9
298.15 K, x1 = 0.2006	1112.46	1389.6
298.15 K, x1 = 0.3032	1156.56	1394.5
298.15 K, x1 = 0.4013	1188.79	1398
298.15 K, x1 = 0.5017	1215.23	1401.7
298.15 K, x1 = 0.6054	1237.4	1407.8
298.15 K, x1 = 0.7024	1254.67	1408.9
298.15 K, x1 = 0.8019	1269.91	1411.5
298.15 K, x1 = 0.9094	1284.2	1415.8
303.15 K, x1 = 0.0503	1007.16	1349.2
303.15 K, x1 = 0.1092	1053.96	1362.9
303.15 K, x1 = 0.2006	1108.02	1374.7
303.15 K, x1 = 0.3032	1152.21	1380.7
303.15 K, x1 = 0.4013	1184.47	1385.2
303.15 K, x1 = 0.5017	1210.98	1389
303.15 K, x1 = 0.6054	1233.3	1395.1
303.15 K, x1 = 0.7024	1250.63	1396.7
303.15 K, x1 = 0.8019	1265.91	1399.4
303.15 K, x1 = 0.9094	1280.2	1403.3
308.15 K, x1 = 0.0503	1002.49	1332.7
308.15 K, x1 = 0.1092	1049.43	1347.1
308.15 K, x1 = 0.2006	1103.58	1359.9
308.15 K, x1 = 0.3032	1147.84	1367.3
308.15 K, x1 = 0.4013	1180.37	1372.3
308.15 K, x1 = 0.5017	1206.95	1376.4
308.15 K, x1 = 0.6054	1229.34	1382.4
308.15 K, x1 = 0.7024	1246.77	1384.5
308.15 K, x1 = 0.8019	1262.04	1387.4
308.15 K, x1 = 0.9094	1276.2	1391.3
313.15 K, x1 = 0.0503	997.703	1316.2
313.15 K, x1 = 0.1092	1044.81	1331.4
313.15 K, x1 = 0.2006	1099.15	1345.2
313.15 K, x1 = 0.3032	1143.59	1353.7
313.15 K, x1 = 0.4013	1176	1359.4
313.15 K, x1 = 0.5017	1202.67	1364
313.15 K, x1 = 0.6054	1225.28	1370
313.15 K, x1 = 0.7024	1242.9	1372.4
313.15 K, x1 = 0.8019	1258.23	1375.7
313.15 K, x1 = 0.9094	1272.23	1379.5
318.15 K, x1 = 0.0503	993.086	1299.8
318.15 K, x1 = 0.1092	1040.18	1316
318.15 K, x1 = 0.2006	1094.74	1330.8
318.15 K, x1 = 0.3032	1139.13	1340.3
318.15 K, x1 = 0.4013	1171.68	1346.7
318.15 K, x1 = 0.5017	1198.47	1351.6
318.15 K, x1 = 0.6054	1221.29	1357.5
318.15 K, x1 = 0.7024	1239.06	1360.5
318.15 K, x1 = 0.8019	1254.4	1364.1
318.15 K, x1 = 0.9094	1268.47	1368.1

CCCCCCn1cc[n+](C)c1.F[B-](F)(F)F [1-hexyl-3-methylimidazolium tetrafluoroborate] + COCCO
Settings	mass density [kg/m3]	speed of sound [m/s]
288.15 K, x1 = 0.053	996.474	1409.6
288.15 K, x1 = 0.1088	1021	1431.9
288.15 K, x1 = 0.2016	1052.83	1457.6
288.15 K, x1 = 0.3088	1077.88	1478.5
288.15 K, x1 = 0.4106	1093.47	1491.7
288.15 K, x1 = 0.5023	1103.61	1503.4
288.15 K, x1 = 0.5962	1112.5	1512.3
288.15 K, x1 = 0.7006	1122.49	1520
288.15 K, x1 = 0.7995	1132.99	1529.1
288.15 K, x1 = 0.9099	1145.62	1540
293.15 K, x1 = 0.053	991.791	1392.4
293.15 K, x1 = 0.1088	1016.45	1415.8
293.15 K, x1 = 0.2016	1048.37	1442.3
293.15 K, x1 = 0.3088	1073.64	1463.8
293.15 K, x1 = 0.4106	1089.74	1477.6
293.15 K, x1 = 0.5023	1100.22	1490.1
293.15 K, x1 = 0.5962	1109.27	1499.5
293.15 K, x1 = 0.7006	1119.44	1508.2
293.15 K, x1 = 0.7995	1130.02	1518.1
293.15 K, x1 = 0.9099	1142.38	1527.2
298.15 K, x1 = 0.053	987.817	1375.8
298.15 K, x1 = 0.1088	1012.38	1399.8
298.15 K, x1 = 0.2016	1044.22	1427.1
298.15 K, x1 = 0.3088	1069.47	1449.5
298.15 K, x1 = 0.4106	1085.86	1463.8
298.15 K, x1 = 0.5023	1096.66	1476.9
298.15 K, x1 = 0.5962	1106.01	1487.1
298.15 K, x1 = 0.7006	1116.37	1496.5
298.15 K, x1 = 0.7995	1126.8	1505.8
298.15 K, x1 = 0.9099	1138.92	1514.7
303.15 K, x1 = 0.053	983.383	1359.3
303.15 K, x1 = 0.1088	1008.21	1384
303.15 K, x1 = 0.2016	1040.16	1411.9
303.15 K, x1 = 0.3088	1065.51	1435.5
303.15 K, x1 = 0.4106	1081.93	1450.1
303.15 K, x1 = 0.5023	1092.85	1463.9
303.15 K, x1 = 0.5962	1102.49	1474.7
303.15 K, x1 = 0.7006	1113.08	1484.5
303.15 K, x1 = 0.7995	1123.59	1493.6
303.15 K, x1 = 0.9099	1135.86	1502.4
308.15 K, x1 = 0.053	979.101	1342.8
308.15 K, x1 = 0.1088	1004.1	1368.2
308.15 K, x1 = 0.2016	1036.07	1397
308.15 K, x1 = 0.3088	1061.47	1421.5
308.15 K, x1 = 0.4106	1077.94	1436.9
308.15 K, x1 = 0.5023	1089.12	1451
308.15 K, x1 = 0.5962	1098.81	1462.2
308.15 K, x1 = 0.7006	1109.56	1472.2
308.15 K, x1 = 0.7995	1120.09	1481.5
308.15 K, x1 = 0.9099	1132.31	1490.3
313.15 K, x1 = 0.053	974.997	1326.5
313.15 K, x1 = 0.1088	999.809	1352.3
313.15 K, x1 = 0.2016	1031.82	1382.1
313.15 K, x1 = 0.3088	1057.43	1407.4
313.15 K, x1 = 0.4106	1073.99	1424.1
313.15 K, x1 = 0.5023	1085.32	1438.4
313.15 K, x1 = 0.5962	1095.09	1449.7
313.15 K, x1 = 0.7006	1105.89	1460.1
313.15 K, x1 = 0.7995	1116.48	1469.5
313.15 K, x1 = 0.9099	1128.74	1478.5
318.15 K, x1 = 0.053	970.346	1309.8
318.15 K, x1 = 0.1088	995.598	1336.2
318.15 K, x1 = 0.2016	1027.87	1367.3
318.15 K, x1 = 0.3088	1053.41	1393.3
318.15 K, x1 = 0.4106	1070.02	1411.6
318.15 K, x1 = 0.5023	1080.99	1425.6
318.15 K, x1 = 0.5962	1090.77	1437.4
318.15 K, x1 = 0.7006	1101.5	1448.2
318.15 K, x1 = 0.7995	1112.28	1457.7
318.15 K, x1 = 0.9099	1124.84	1466.9
